Measured values: ChEMBL document CHEMBL6074655, “Vindeburnol: A natural product-inspired chemical tool for central nervous system drug design” (Eur J Med Chem, 2024)

Tests used:
[1] = Toxicity in female mouse assessed as mortality rate at 50 mg/kg, iv; type: organism-based; conditions: in vivo
[2] = Toxicity in male mouse assessed as mortality rate at 50 mg/kg, iv; type: organism-based; conditions: in vivo

O[C@@H]1C[C@H]2CCCN3CCc4c(n1c1ccccc41)[C@H]23
mortality [1]: 64% | mortality [2]: 70%
